The text below walks through data of US20230416168A1 (EUROCHEM ANTWERPEN, priority 2020, published 2023).

The test system of the test is Merelbeke soil. Briefly: In soil nitrification inhibition assay, Merelbeke soil. As to conditions: for inhibition of ammonium consumption in soil, in words: 50 μM, one week of treatment; for inhibition at 50 µM: soil, 168 h, 7 days, read-out: % Nitrification inhibition in soil (7 days of incubation, Merelbeke soil). The protocol: Top layer (0 to 10 cm) soil samples were collected from different fields in Belgium (Merelbeke and Moorslede). Vegetation on the field trial was removed and samples were taken from different plots. All soil samples were mixed and sieved (mesh size 2.8 mm) to filter large debris and homogenize soil. The soil was stored at 5° C. in plastic containers covered with Saran foil to prevent changes in microbial community composition and to maintain the original soil water content. Soil water content was determined by drying 20 g soil for 48 h in a 60° C. oven and measuring weight before and after drying. Based on the soil water content (±20%), compound solutions were prepared so that addition of 200 μl compound and 200 μl NH4Cl solution would result in a final compound concentration of 50 μM and a final NH4^+ concentration of 10 mM. Per treatment, 5 small pots were filled with 20 g soil. Next, the soil was treated first with the respective compound solution and then with the NH4Cl solution. Per tray, positive (50 μM DMP) and negative controls (DMSO) were included. Pots were incubated at 21° C. (6 a.m. to 10 p.m. light) for 7 days. Demineralized water was added to the soil every 2 to 3 days to a soil weight of 20 g. In the end, each sample of 20 g soil was dissolved in 100 ml 1M KCl and shaken for 1 hour, followed by filtration through Whatmann® paper. The filtrate was used to measure pH, NH4^+ and NO3− concentrations. The nitrification inhibitors were applied in a nitrification inhibition assay using agricultural soil. In practice, ammonium with or without the new nitrification inhibitors was added to soil from a field in Merelbeke (Belgium). The ammonium level was measured at the start of the experiment and at the end of the experiment, after one week of incubation. A nitrification inhibition percentage was calculated by comparing the reduction in ammonium level with the nitrification inhibitor to the reduction in ammonium without the nitrification inhibitor. Ammonium was added to soil with a high nitrification activity and treated with the nitrification inhibitors (final concentration of 50 μM). […] This validates that the new nitrification inhibitors are effectively inhibiting ammonia oxidation by soil communities.

The inhibition is the drop in the measured response relative to a control, in per cent. For `CN(Cc1c(Cl)nc2sccn12)CN1CCSC1=S` [Example 1, 3-[[(6-chloroimidazo[2,1-b][1,3]thiazol-5-yl)methyl-methylamino]methyl]-1,3-thiazolidine-2-thione], the “inhibition of ammonium consumption in soil, in words” value is “strongly inhibited the ammonium consumption” and the inhibition at 50 µM amounted to 60%.
Taken in the same sequence, the figures for `CN(Cc1nc2ccccc2s1)CN1CCOC1=S` [Example 5, 3-[[1,3-benzothiazol-2-ylmethyl(methyl)amino]methyl]-1,3-oxazolidine-2-thione] were “significant inhibition” and 14%.
